Results on 3 compounds are retold here after patent US12545748B2, “Water-soluble 1,3-diphenylguanidine (DPG)-based supramolecular inclusion complex and preparation method and use thereof” (YANGZHOU UNIVERSITY, priority 2021, dated 2026).

Values after ≈ are worked out from the molar mass of the structure shown. Like-named read-outs stand apart in the source and are kept apart here.

Data set [1] is classed as physicochemical. As to the method:
1. Determination of Inclusion Ratio and Inclusion Constant of Inclusion Complex by Ultraviolet-Visible Spectroscopy
According to a Benesi-Hildebrand method (J. Am. Chem. Soc. 1949, 71, 8, 2703-2707), it was obtained that: at 25° C., the complexation stability constants of HP-β-CD and β-CDP with DPG were 26.87 L/mol and 27.88 L/mol, respectively.

Data set [2] is described as follows: Thermogravimetric analysis (thermal stability). The data set is classed as physicochemical. The protocol:
Taking Examples 2 and 4 as examples, the thermal stability of DPG raw materials, HP-β-CD, β-CDP and their respective inclusion complexes were analyzed by thermogravimetric analysis, and the results were shown in FIG. 4.

A short description of data set [3]: Solubilization experiment by ultraviolet-visible spectra (244 nm). The note with it: water, thermodynamic from solid. The text has this: Taking Examples 2 and 4 as examples, the solubilization effect was verified by comparing and analyzing absorption peaks of ultraviolet-visible spectra of the DPG raw material, the DPG-β-CDP inclusion complex, and the DPG-HP-β-CD inclusion complex. The results were shown in FIG. 5, β-CDP and HP-β-CD had no ultraviolet absorption peaks.

The conditions of data set [4]: in water at 25° C.; cited from earlier work.

For the compound hydroxypropyl-ß-cyclodextrin [HP-β-CD], the “complexation stability constant with DPG” value in data set [1] is 26.87 L/mol.

Usually solubility stands for the dissolved amount per volume that the medium holds. For `N=C(Nc1ccccc1)Nc1ccccc1` [DPG, 1,3-diphenylguanidine], in data set [2], the “second decomposition (temperature)” value stood at 256 °C. Further, the “began to decompose (temperature)” value in data set [2] (first decomposition) was found to be 166 °C. In addition, the solubility was 315 µg/mL (≈ 1490 µM) in data set [3] and “about 315 mg/L” in data set [4].

Turning to β-cyclodextrin polymer [β-CDP], the “complexation stability constant with DPG” value in data set [1] turned out to be 27.88 L/mol.
